In patent US5051519A, “Novel antiviral and antitumor terpene hydroquinones and methods of use” (Harbor Branch Oceanographic Institution, Inc., priority 1990, dated 1991):
≈ marks a conversion by molar mass, not a printed value.

Tests used:
[1] = tested on: influenza virus type A strain PR8; assay: Antiviral assay: cytopathic effect (CPE) reduction, influenza virus type A strain PR8 in MDCK cells, neutral red dye uptake; assay type: cell-based, Influenza A strain A/PR/8/34 (HINI)
[2] = tested on: MDCK cells; assay: Growth inhibition (cytotoxicity) of MDCK cells in the PR-8 antiviral assay, neutral red; assay type: cell-based, canine (Canis familiaris); conditions: Canis lupus familiaris, 50% growth inhibition
[3] = tested on: P388 murine leukemia cells; assay: Antiproliferative effect against murine P388 leukemia cells, MTT; assay type: cell-based; conditions: Mus musculus, 48 hour exposure
Experimental: The crude ethanolic extract and pure compound was tested for toxicity against murine P388 leukemia cells. P388 cells obtained from J. Mayo, National Cancer Institute, Bethesda, Md., were maintained in Roswell Park Memorial Institute medium 1640 (RPMI-1640) supplemented with 10% horse serum. All cell lines were cultured in plastic tissue culture flasks and kept in an incubator at 37° C. in humidified air containing 5% CO2. Antibiotic-free stock cultures of P388 cells were subcultured to 10^5 cells/ml by dilution in fresh growth medium at 2-3 day intervals. The mean generation time of primary cultures was 14-17 hours.
To assess the antiproliferative effects of agents against P388 cells, 200 μl cultures (96-well tissue culture plates, Nunc, Denmark) were established at 1×10^6 cells/ml in drug-free medium or medium containing the crude extract at a final dilution of 1:500 of compound 1 or 2 at various concentrations. Solvent for all dilutions was methanol, which was removed from plates under vacuum. All experimental cultures were initiated in medium containing Gentamicin sulfate ([…]; Schering Corporation, Kenilworth, N.J.). After 48 hour exposures, P388 cells were enumerated using 3-[4,5-dimethylthiazol-2-yl]-2,5-diphenyltetrazolium bromide (MTT) as described below (Alley, M. C. et al. [1988] Cancer Res. 48:589).
To quantitate the effects on cell proliferation, 75 μl of warm growth medium containing 5 mg/ml MTT was added to each well and cultures were returned to the incubator for 90 minutes. To spectrophotometrically quantitate formation of reduced formazan, plates were centrifuged (900 xg, 5 minutes), culture fluids removed by aspiration, and 200 μl of acidified isopropanol (2 ml concentrated HCl/liter isopropanol) added per well. The absorbance of the resulting solutions were measured at 570 nm with a plate reader (MR700 Microplate Reader, Dynatech Laboratories, Chantilly, Va.). […] A linear relationship between P388 cell number and formazan production was found over the range of cell densities observed in these experiments.

[4] = molar restatement of μg per 200 μl value

SMILES	in vitro therapeutic index (TI) ([1]; dog, mdck)	IC50 [2, 4]	IC50 ([2]; 72 h, read on day 3)	IC50 [3]	activity against influenza virus type A strain PR-8 (in words) [1]	in vitro therapeutic index (TI) ([1]; ratio of IC50/EC50)
COc1ccc(O)c2c1CC1(C)C(C)CCC3C(C)(C)CCCC31O2 (stereo not shown) [Compound 1]	9	19 µM	6.5 µg/mL	13 µg/mL (≈ 37.7 µM)		
COc1ccc(OC(C)=O)c2c1CC1(C)C(C)CCC3C(C)(C)CCCC31O2 (stereo not shown) [Compound 2]	100	15 µM	5 µg/mL	23.8 µg/mL (≈ 61.6 µM)		
C[C@H]1CC[C@H]2C(C)(C)CCC[C@]23Oc2ccc(O)cc2C[C@]13C [aureol, reference compound]		11.6 µM	3.65 µg/mL	9 µg/mL (≈ 28.6 µM)	strong antiviral activity	116
